Assay results as given in patent EP0908457B1, “3-(1,2-benzisothiazol- and isoxazol-5-Y1)-2,4(1H,3H)-pyrimidinedione or thione and 3-(1,2-benzisothiazol- and isoxazol-5-y1)-4(3H)-pyrimidinone or thione herbicidal agents” (BASF AKTIENGESELLSCHAFT, priority 1997, dated 1999).

Experiments:
Cyperus iria [1] = assay: Preemergence weed control under flooded paddy conditions, CYPIR (Rice Flatsedge); assay type: in vivo; conditions: preemergence, flooded paddy, rated three to four weeks after treatment; note: meaning of each grade not given here
Sagittaria pygmaea, L. [2] = assay: Postemergence weed control under flooded paddy conditions, SAGPY (Arrowhead (Pygmaea)); assay type: in vivo; conditions: rated three to four weeks after treatment
[3] = test system: Oryza sativa, (L.) Tebonnet; assay: Rice tolerance to post-transplant applications under flooded paddy conditions (Example 188), ORYSAT (Rice, Tebonnet); conditions: rated three to four weeks after treatment
[4] = test system: Echinochloa oryzoides (Ard.) Fritsch.; assay: Postemergence weed control under flooded paddy conditions, ECHORC (Watergrass (Calif.)); assay type: in vivo; conditions: rated three to four weeks after treatment
[5] = test system: Monochoria vaginalis, Presl.; assay: Postemergence weed control under flooded paddy conditions, MOOVA (Monochoria); assay type: in vivo; conditions: rated three to four weeks after treatment
[6] = test system: Monochoria vaginalis, Presl.; assay: Preemergence weed control under flooded paddy conditions, MOOVA (Monochoria); assay type: in vivo; conditions: preemergence, flooded paddy, rated three to four weeks after treatment; note: meaning of each grade not given here
[7] = test system: Oryza sativa, (L.) Tebonnet; assay: Rice tolerance to post-transplant applications under flooded paddy conditions (Example 187), ORYSAT (Rice, Tebonnet); conditions: rated three to four weeks after treatment
[8] = test system: Echinochloa oryzoides (Ard.) Fritsch.; assay: Preemergence weed control under flooded paddy conditions, ECHORC (Watergrass (Calif.)); assay type: in vivo; conditions: preemergence, flooded paddy, rated three to four weeks after treatment; note: meaning of each grade not given here
[9] = test system: Cyperus serotinus, Rottb.; assay: Preemergence weed control under flooded paddy conditions, CYPSE (Flatsedge); assay type: in vivo; conditions: preemergence, rated three to four weeks after treatment; note: meaning of each grade not given here
Cyperus iria [10] = assay: Postemergence weed control under flooded paddy conditions, CYPIR (Rice Flatsedge); assay type: in vivo; conditions: rated three to four weeks after treatment
[11] = test system: Cyperus serotinus, Rottb.; assay: Postemergence weed control under flooded paddy conditions, CYPSE (Flatsedge); assay type: in vivo; conditions: rated three to four weeks after treatment
Sagittaria pygmaea, L. [12] = assay: Preemergence weed control under flooded paddy conditions, SAGPY (Arrowhead (Pygmaea)); assay type: in vivo; conditions: preemergence, flooded paddy, rated three to four weeks after treatment; note: meaning of each grade not given here

COC(=O)C(C)Oc1cc(C)c(C)cc1-c1nsc2ccc(-n3c(=O)cc(C(F)(F)F)n(C)c3=O)cc12 (stereo not drawn) [Example 13, Methyl 2-{{6-{5-[3,6-dihydro-3-methyl-4-(trifluoromethyl)-2,6-dioxo-1(2H)-pyrimidinyl]-1,2-benzisothiazol-3-yl}-3,4-xylyl}oxy}propionate]
herbicidal effect rating, CYPIR (Cyperus iria [1]; 0.0313 kg/ha): 9.0
herbicidal effect rating, CYPIR (Cyperus iria [1]; 0.0625 kg/ha): 9.0
herbicidal effect rating, CYPIR (Cyperus iria [1]; 0.1250 kg/ha): 9.0
herbicidal effect rating, CYPIR (Cyperus iria [1]; 0.2500 kg/ha): 9.0
herbicidal effect rating, CYPIR (Cyperus iria [1]; 0.5000 kg/ha): 9.0
herbicidal effect rating, SAGPY (Sagittaria pygmaea, L. [2]; Rate 0.0313 kg/ha): 0.0
herbicidal effect rating, SAGPY (Sagittaria pygmaea, L. [2]; Rate 0.0625 kg/ha): 0.0
herbicidal effect rating, SAGPY (Sagittaria pygmaea, L. [2]; Rate 0.1250 kg/ha): 2.0
herbicidal effect rating, SAGPY (Sagittaria pygmaea, L. [2]; Rate 0.2500 kg/ha): 2.0
herbicidal effect rating, SAGPY (Sagittaria pygmaea, L. [2]; Rate 0.5000 kg/ha): 9.0
herbicidal effect rating, ORYSAT (rice tolerance) ([3]; Rate 0.0313 kg/ha): 2.0
herbicidal effect rating, ORYSAT (rice tolerance) ([3]; Rate 0.0625 kg/ha): 2.0
herbicidal effect rating, ORYSAT (rice tolerance) ([3]; Rate 0.1250 kg/ha): 4.0
herbicidal effect rating, ORYSAT (rice tolerance) ([3]; Rate 0.2500 kg/ha): 4.0
herbicidal effect rating, ORYSAT (rice tolerance) ([3]; Rate 0.5000 kg/ha): 7.0
herbicidal effect rating, ECHORC ([4]; Rate 0.0313 kg/ha): 0.0
herbicidal effect rating, ECHORC ([4]; Rate 0.0625 kg/ha): 2.0
herbicidal effect rating, ECHORC ([4]; Rate 0.1250 kg/ha): 6.0
herbicidal effect rating, ECHORC ([4]; Rate 0.2500 kg/ha): 8.0
herbicidal effect rating, ECHORC ([4]; Rate 0.5000 kg/ha): 9.0
herbicidal effect rating, MOOVA ([5]; Rate 0.0313 kg/ha): 9.0
herbicidal effect rating, MOOVA ([5]; Rate 0.0625 kg/ha): 9.0
herbicidal effect rating, MOOVA ([5]; Rate 0.1250 kg/ha): 9.0
herbicidal effect rating, MOOVA ([5]; Rate 0.2500 kg/ha): 9.0
herbicidal effect rating, MOOVA ([5]; Rate 0.5000 kg/ha): 9.0
herbicidal effect rating, MOOVA ([6]; 0.0313 kg/ha): 9.0
herbicidal effect rating, MOOVA ([6]; 0.0625 kg/ha): 9.0
herbicidal effect rating, MOOVA ([6]; 0.1250 kg/ha): 9.0
herbicidal effect rating, MOOVA ([6]; 0.2500 kg/ha): 9.0
herbicidal effect rating, MOOVA ([6]; 0.5000 kg/ha): 9.0
herbicidal effect rating, ORYSAT (rice tolerance) ([7]; 0.0313 kg/ha): 4.0
herbicidal effect rating, ORYSAT (rice tolerance) ([7]; 0.0625 kg/ha): 6.0
herbicidal effect rating, ORYSAT (rice tolerance) ([7]; 0.1250 kg/ha): 7.0
herbicidal effect rating, ORYSAT (rice tolerance) ([7]; 0.2500 kg/ha): 7.0
herbicidal effect rating, ORYSAT (rice tolerance) ([7]; 0.5000 kg/ha): 9.0
herbicidal effect rating, ECHORC ([8]; 0.0313 kg/ha): 9.0
herbicidal effect rating, ECHORC ([8]; 0.0625 kg/ha): 9.0
herbicidal effect rating, ECHORC ([8]; 0.1250 kg/ha): 9.0
herbicidal effect rating, ECHORC ([8]; 0.2500 kg/ha): 9.0
herbicidal effect rating, ECHORC ([8]; 0.5000 kg/ha): 9.0
herbicidal effect rating, CYPSE ([9]; 0.0313 kg/ha): 0.0
herbicidal effect rating, CYPSE ([9]; 0.0625 kg/ha): 2.0
herbicidal effect rating, CYPSE ([9]; 0.1250 kg/ha): 7.0
herbicidal effect rating, CYPSE ([9]; 0.2500 kg/ha): 7.0
herbicidal effect rating, CYPSE ([9]; 0.5000 kg/ha): 7.0
herbicidal effect rating, CYPIR (Cyperus iria [10]; Rate 0.0313 kg/ha): 9.0
herbicidal effect rating, CYPIR (Cyperus iria [10]; Rate 0.0625 kg/ha): 9.0
herbicidal effect rating, CYPIR (Cyperus iria [10]; Rate 0.1250 kg/ha): 9.0
herbicidal effect rating, CYPIR (Cyperus iria [10]; Rate 0.2500 kg/ha): 9.0
herbicidal effect rating, CYPIR (Cyperus iria [10]; Rate 0.5000 kg/ha): 9.0
herbicidal effect rating, CYPSE ([11]; Rate 0.0313 kg/ha): 0.0
herbicidal effect rating, CYPSE ([11]; Rate 0.0625 kg/ha): 0.0
herbicidal effect rating, CYPSE ([11]; Rate 0.1250 kg/ha): 2.0
herbicidal effect rating, CYPSE ([11]; Rate 0.2500 kg/ha): 4.0
herbicidal effect rating, CYPSE ([11]; Rate 0.5000 kg/ha): 2.0
herbicidal effect rating, SAGPY (Sagittaria pygmaea, L. [12]; 0.0313 kg/ha): 0.0
herbicidal effect rating, SAGPY (Sagittaria pygmaea, L. [12]; 0.0625 kg/ha): 2.0
herbicidal effect rating, SAGPY (Sagittaria pygmaea, L. [12]; 0.1250 kg/ha): 6.0
herbicidal effect rating, SAGPY (Sagittaria pygmaea, L. [12]; 0.2500 kg/ha): 8.0
herbicidal effect rating, SAGPY (Sagittaria pygmaea, L. [12]; 0.5000 kg/ha): 9.0

Cc1nsc2ccc(-n3c(=O)cc(C(F)(F)F)n(C)c3=O)cc12 [Example 6, 1-Methyl-3-(3-methyl-1,2-benzisothiazol-5-yl)-6-(trifluoromethyl)-2,4(1H,3H)-pyrimidinedione]
herbicidal effect rating, CYPIR (Cyperus iria [1]; 0.0625 kg/ha): 9.0
herbicidal effect rating, CYPIR (Cyperus iria [1]; 0.1250 kg/ha): 9.0
herbicidal effect rating, CYPIR (Cyperus iria [1]; 0.2500 kg/ha): 9.0
herbicidal effect rating, CYPIR (Cyperus iria [1]; 0.5000 kg/ha): 9.0
herbicidal effect rating, SAGPY (Sagittaria pygmaea, L. [2]; Rate 0.0313 kg/ha): 2.0
herbicidal effect rating, SAGPY (Sagittaria pygmaea, L. [2]; Rate 0.0625 kg/ha): 4.0
herbicidal effect rating, SAGPY (Sagittaria pygmaea, L. [2]; Rate 0.1250 kg/ha): 6.0
herbicidal effect rating, SAGPY (Sagittaria pygmaea, L. [2]; Rate 0.2500 kg/ha): 8.0
herbicidal effect rating, SAGPY (Sagittaria pygmaea, L. [2]; Rate 0.5000 kg/ha): 9.0
herbicidal effect rating, ORYSAT (rice tolerance) ([3]; Rate 0.0313 kg/ha): 4.0
herbicidal effect rating, ORYSAT (rice tolerance) ([3]; Rate 0.0625 kg/ha): 4.0
herbicidal effect rating, ORYSAT (rice tolerance) ([3]; Rate 0.1250 kg/ha): 9.0
herbicidal effect rating, ORYSAT (rice tolerance) ([3]; Rate 0.2500 kg/ha): 9.0
herbicidal effect rating, ORYSAT (rice tolerance) ([3]; Rate 0.5000 kg/ha): 9.0
herbicidal effect rating, ECHORC ([4]; Rate 0.0313 kg/ha): 4.0
herbicidal effect rating, ECHORC ([4]; Rate 0.0625 kg/ha): 7.0
herbicidal effect rating, ECHORC ([4]; Rate 0.1250 kg/ha): 9.0
herbicidal effect rating, ECHORC ([4]; Rate 0.2500 kg/ha): 9.0
herbicidal effect rating, ECHORC ([4]; Rate 0.5000 kg/ha): 9.0
herbicidal effect rating, MOOVA ([5]; Rate 0.0313 kg/ha): 9.0
herbicidal effect rating, MOOVA ([5]; Rate 0.0625 kg/ha): 9.0
herbicidal effect rating, MOOVA ([5]; Rate 0.1250 kg/ha): 9.0
herbicidal effect rating, MOOVA ([5]; Rate 0.2500 kg/ha): 9.0
herbicidal effect rating, MOOVA ([5]; Rate 0.5000 kg/ha): 9.0
herbicidal effect rating, MOOVA ([6]; 0.0625 kg/ha): 9.0
herbicidal effect rating, MOOVA ([6]; 0.1250 kg/ha): 9.0
herbicidal effect rating, MOOVA ([6]; 0.2500 kg/ha): 9.0
herbicidal effect rating, MOOVA ([6]; 0.5000 kg/ha): 9.0
herbicidal effect rating, ORYSAT (rice tolerance) ([7]; 0.0625 kg/ha): 8.0
herbicidal effect rating, ORYSAT (rice tolerance) ([7]; 0.1250 kg/ha): 8.0
herbicidal effect rating, ORYSAT (rice tolerance) ([7]; 0.2500 kg/ha): 8.0
herbicidal effect rating, ORYSAT (rice tolerance) ([7]; 0.5000 kg/ha): 8.0
herbicidal effect rating, ECHORC ([8]; 0.0625 kg/ha): 6.0
herbicidal effect rating, ECHORC ([8]; 0.1250 kg/ha): 8.0
herbicidal effect rating, ECHORC ([8]; 0.2500 kg/ha): 9.0
herbicidal effect rating, ECHORC ([8]; 0.5000 kg/ha): 9.0
herbicidal effect rating, CYPSE ([9]; 0.0625 kg/ha): 4.0
herbicidal effect rating, CYPSE ([9]; 0.1250 kg/ha): 7.0
herbicidal effect rating, CYPSE ([9]; 0.2500 kg/ha): 9.0
herbicidal effect rating, CYPSE ([9]; 0.5000 kg/ha): 9.0
herbicidal effect rating, CYPIR (Cyperus iria [10]; Rate 0.0313 kg/ha): 9.0
herbicidal effect rating, CYPIR (Cyperus iria [10]; Rate 0.0625 kg/ha): 9.0
herbicidal effect rating, CYPIR (Cyperus iria [10]; Rate 0.1250 kg/ha): 9.0
herbicidal effect rating, CYPIR (Cyperus iria [10]; Rate 0.2500 kg/ha): 9.0
herbicidal effect rating, CYPIR (Cyperus iria [10]; Rate 0.5000 kg/ha): 9.0
herbicidal effect rating, CYPSE ([11]; Rate 0.0313 kg/ha): 0.0
herbicidal effect rating, CYPSE ([11]; Rate 0.0625 kg/ha): 2.0
herbicidal effect rating, CYPSE ([11]; Rate 0.1250 kg/ha): 7.0
herbicidal effect rating, CYPSE ([11]; Rate 0.2500 kg/ha): 7.0
herbicidal effect rating, CYPSE ([11]; Rate 0.5000 kg/ha): 9.0
herbicidal effect rating, SAGPY (Sagittaria pygmaea, L. [12]; 0.0625 kg/ha): 4.0
herbicidal effect rating, SAGPY (Sagittaria pygmaea, L. [12]; 0.1250 kg/ha): 7.0
herbicidal effect rating, SAGPY (Sagittaria pygmaea, L. [12]; 0.2500 kg/ha): 7.0
herbicidal effect rating, SAGPY (Sagittaria pygmaea, L. [12]; 0.5000 kg/ha): 9.0
